# Assay results: patent US7595404B2, “Thiazolyl-substituted carbocyclic 1,3-diones as pesticidal agents” (Bayer CropScience AG, priority 2001, dated 2009)
# Experiments:
# [1] = system: green peach aphid (Myzus persicae); test: Myzus test (systemic action); format: in vivo; settings: 20 ppm, watering of infested Savoy cabbage (systemic)
# Description: Myzus Test (Systemic Action) • Solvent: 7 parts by weight of dimethylformamide • Emulsifier: 2 parts by weight of alkylaryl polyglycol ether To produce a suitable preparation of active compound, 1 part by weight of active compound is mixed with the stated amounts of solvent and emulsifier, and the concentrate is diluted with emulsifier-containing water to the desired concentration. Savoy cabbage (Brassica oleracea) which is heavily infested by the green peach aphid (Myzus persicae) is watered with in each case 10 ml of preparation of active compound of the desired concentration such that the preparation of active compound penetrates into the soil without wetting the seedling. The active compound is taken up by the roots and transferred into the seedling. After the desired period of time, the kill in % is determined. 100% means that all aphids have been killed; 0% means that none of the aphids have been killed.
# Oilseed rape = test: Pre-emergence test, Oilseed rape; format: in vivo; settings: pre-emergence/greenhouse; 125 g a.i./ha; after three weeks; crop
# Description: (§1) • Solvent: 5 parts by weight of acetone • Emulsifier: 1 part by weight of alkylaryl polyglycol ether
# (§2) To produce a suitable preparation of active compound, 1 part by weight of active compound is mixed with the stated amount of solvent, the stated amount of emulsifier is added and the concentrate is diluted with water to the desired concentration.
# (§3) Seeds of the test plants are sown in normal soil. After about 24 hours, the soil is sprayed with the preparation of active compound such that the particular amounts of active compound desired are applied per unit area. The concentration of the spray liquor is chosen such that the particular amounts of active compound desired are applied in 1000 l of water/ha.
# (§4) After three weeks, the degree of damage to the plants is rated in % damage in comparison to the development of the untreated control.
# (§5) The figures denote: • 0% =no effect (like untreated control) • 100% =total destruction
# Lolium = test: Pre-emergence test, Lolium; format: in vivo; settings: pre-emergence/greenhouse, after three weeks
# Description: as §1, §2, §3, §4, §5
# Alopecurus [2] = test: Pre-emergence test, Alopecurus; format: in vivo; settings: pre-emergence/greenhouse; 125 g a.i./ha; after three weeks
# Description: as §1, §2, §3, §4, §5
# Stellaria = test: Pre-emergence test, Stellaria; format: in vivo; settings: pre-emergence/greenhouse; 125 g a.i./ha; after three weeks
# Description: as §1, §2, §3, §4, §5
# Digitaria = test: Pre-emergence test, Digitaria; format: in vivo; settings: pre-emergence/greenhouse, after three weeks
# Description: as §1, §2, §3, §4, §5
# Setaria [3] = test: Pre-emergence test, Setaria; format: in vivo; settings: pre-emergence/greenhouse, after three weeks
# Description: as §1, §2, §3, §4, §5
# Soya bean = test: Pre-emergence test, Soya bean; format: in vivo; settings: pre-emergence/greenhouse, after three weeks, crop
# Description: as §1, §2, §3, §4, §5
# Abutilon = test: Pre-emergence test, Abutilon; format: in vivo; settings: pre-emergence/greenhouse; 125 g a.i./ha; after three weeks
# Description: as §1, §2, §3, §4, §5
# Setaria [4] = test: Post-emergence test, Setaria; format: in vivo; settings: post-emergence/greenhouse; 250 g a.i./ha; after three weeks
# Description: as §1, §2
# (§6) Test plants of a height of 5-15 cm are sprayed with the preparation of active compound such that the particular amounts of active compound desired are applied per unit area. The concentration of the spray liquor is chosen such that the particular amounts of active compound desired are applied in 1000 l of water/ha.
# as §4, §5
# [5] = system: caterpillars of the armyworm (Spodoptera frugiperda); test: Spodoptera frugiperda test; format: in vivo; settings: 500 ppm, dipped cabbage leaves
# Description: Spodoptera Frugiperda Test • Solvent: 7 parts by weight of dimethylformamide • Emulsifier: 2 parts by weight of alkylaryl polyglycol ether To produce a suitable preparation of active compound, 1 part by weight of active compound is mixed with the stated amounts of solvent and emulsifier, and the concentrate is diluted with emulsifier-containing water to the desired concentration. Cabbage leaves (Brassica oleracea) are treated by being dipped into the preparation of active compound of the desired concentration and are populated with caterpillars of the armyworm (Spodoptera frugiperda) while the leaves are still moist. After the desired period of time, the kill in % is determined. 100% means that all caterpillar larvae have been killed; 0% means that none of the caterpillar have been killed.
# [6] = system: greenhouse red spider mite (Tetranychus urticae); test: Tetranychus test (OP-resistant/dip treatment); format: in vivo; settings: 100 ppm, dipped bean plants
# Description: Tetranychus test (OP-Resistant/Dip Treatment)
# • Solvent: 30 parts by weight of dimethylformamide • Emulsifier: 1 part by weight of alkylaryl polyglycol ether
# To produce a suitable preparation of active compound, 1 part by weight of active compound is mixed with the stated amounts of solvent and emulsifier, and the concentrate is diluted with emulsifier-containing water to the desired concentration.
# Bean plants (Phaseolus vulgaris) which are heavily infested by all stages of the greenhouse red spider mite (Tetranychus urticae) are dipped into a preparation of active compound of the desired concentration.
# After the desired period of time, the effect in % is determined. 100% means that all spider mites have been killed; 0% means that none of the spider mites have been killed.
# Sugar-beet = test: Post-emergence test, Sugar beet; format: in vivo; settings: post-emergence/greenhouse; 250 g a.i./ha; after three weeks; crop
# Description: as §1, §2, §6, §4, §5
# Echinochloa = test: Post-emergence test, Echinochloa; format: in vivo; settings: post-emergence/greenhouse; 250 g a.i./ha; after three weeks
# Description: as §1, §2, §6, §4, §5
# Bromus = test: Pre-emergence test, Bromus; format: in vivo; settings: pre-emergence/greenhouse; 125 g a.i./ha; after three weeks
# Description: as §1, §2, §3, §4, §5
# Avena fatua = test: Post-emergence test, Avena fatua; format: in vivo; settings: post-emergence/greenhouse; 250 g a.i./ha; after three weeks
# Description: as §1, §2, §6, §4, §5
# Alopecurus [7] = test: Post-emergence test, Alopecurus; format: in vivo; settings: post-emergence/greenhouse; 250 g a.i./ha; after three weeks
# Description: as §1, §2, §6, §4, §5
# [8] = system: apple scab pathogen Venturia inaequalis; test: Venturia test (apple)/protective; format: in vivo; settings: protective, 100 g/ha, 10 days after inoculation
# Description: Venturia Test (Apple)/Protective […] To produce a suitable preparation of active compound, 1 part by weight of active compound is mixed with the stated amounts of solvent and emulsifier, and the concentrate is diluted with water to the desired concentration. To test for protective activity, young plants are sprayed with the preparation of active compound at the stated application rate. After the spray coating has dried on, the plants are inoculated with an aqueous conidia suspension of the apple scab pathogen Venturia inaequalis and then remain in an incubation cabin at about 20° C. and 100% relative atmospheric humidity for 1 day. The plants are then placed in a greenhouse at about 21° C. and a relative atmospheric humidity of about 90%.
# Alternaria solani = test: Alternaria test (tomato)/protective; format: in vivo; settings: protective, 100 g/ha, 3 days after inoculation
# Description: Alternaria Test (Tomato)/Protective […] To produce a suitable preparation of active compound, 1 part by weight of active compound is mixed with the stated amounts of solvent and emulsifier, and the concentrate is diluted with water to the desired concentration. To test for protective activity, young plants are sprayed with the preparation of active compound at the stated application rate. After the spray coating has dried on, the plants are inoculated with an aqueous spore suspension of Alternaria solani. The plants are then placed in an incubation cabin at about […] and 100% relative atmospheric humidity.
# Sinapis = test: Post-emergence test, Sinapis; format: in vivo; settings: post-emergence/greenhouse; 250 g a.i./ha; after three weeks
# Description: as §1, §2, §6, §4, §5
# Wheat = test: Pre-emergence test, Wheat; format: in vivo; settings: pre-emergence/greenhouse; 60 g a.i./ha; after three weeks; crop
# Description: as §1, §2, §3, §4, §5
# Matricaria = test: Pre-emergence test, Matricaria; format: in vivo; settings: pre-emergence/greenhouse; 60 g a.i./ha; after three weeks
# Description: as §1, §2, §3, §4, §5
# Sphaerotheca fuliginea = test: Sphaerotheca test (cucumber)/protective; format: in vivo; settings: protective, 100 g/ha, 7 days after inoculation
# Description: Sphaerotheca Test (Cucumber)/Protective […] To produce a suitable preparation of active compound, 1 part by weight of active compound is mixed with the stated amounts of solvent and emulsifier, and the concentrate is diluted with water to the desired concentration. To test for protective activity, young plants are sprayed with the preparation of active compound at the stated application rate. After the spray coating has dried on, the plants are inoculated with an aqueous spore suspension of Sphaerotheca fuliginea. The plants are then placed in a greenhouse at about 23° C. and a relative atmospheric humidity of about 70%.
# Botrytis cinerea = test: Botrytis test (bean)/protective; format: in vivo; settings: protective, 500 g/ha, 2 days after inoculation
# Description: Botrytis Test (Bean)/Protective
# • Solvent: 24.5 parts by weight of acetone 24.5 parts by weight of dimethylacetamide • Emulsifier: 1 part by weight of alkyl-arylpolyglycol ether
# To produce a suitable preparation of active compound, 1 part by weight of active compound is mixed with the stated amounts of solvent and emulsifier, and the concentrate is diluted with water to the desired concentration.
# To test for protective activity, young plants are sprayed with the preparation of active compound at the stated application rate. After the spray coating has dried on, two small pieces of agar colonized by Botrytis cinerea are placed onto each leaf. The inoculated plants are placed in a dark chamber at about 20° C. and 100% relative atmospheric humidity.
# 2 days after the inoculation, the size of the infested areas on the leaves is evaluated. 0% means an efficacy which corresponds to that of the control, whereas an efficacy of 100% means that no infection is observed.
# Ustilago avenae = test: In vitro test for the ED50 determination in microorganisms, Ustilago avenae; format: cell-based; settings: 50% inhibition of fungal growth, tested at 0.1, 1, 10 and 100 ppm, 22° C., 3-5 days, photometric 620 nm
# Septoria tritici = test: In vitro test for the ED50 determination in microorganisms, Septoria tritici; format: cell-based; settings: 50% inhibition of fungal growth, tested at 0.1, 1, 10 and 100 ppm, 22° C., 3-5 days, photometric 620 nm
# Pyricularia oryzae = format: cell-based; settings: 50% inhibition of fungal growth, tested at 0.1, 1, 10 and 100 ppm, 22° C., 3-5 days, photometric 620 nm
smiles,measurement,setting,value
CCOC(=O)OC1=C(c2nc(-c3ccc(Cl)cc3)sc2C)C(=O)CC12CCCCC2 [Example I-1-c-2],Kill rate in % after 10 d,[1],95%
same,"% damage, Oilseed rape",Oilseed rape,0%
same,"% damage, Lolium",Lolium; 125 g a.i./ha,100%
same,"% damage, Alopecurus",Alopecurus [2],95%
same,"% damage, Stellaria",Stellaria,100%
same,"% damage, Digitaria",Digitaria; 125 g a.i./ha,100%
Cc1sc(-c2ccc(Cl)cc2)nc1C1=C(O)CC(C)(C)CC1=O [Example I-2-a-1],"% damage, Setaria",Setaria [3]; 125 g a.i./ha,100%
same,"% damage, Soya bean",Soya bean; 125 g a.i./ha,0%
same,"% damage, Abutilon",Abutilon,70%
same,"% damage, Setaria",Setaria [4],100%
same,"% damage, Lolium",Lolium; 125 g a.i./ha,100%
same,Kill rate in % after 7 d,[5],100%
same,Kill rate in % after 7 d,[6],98%
same,"% damage, Sugar-beet",Sugar-beet,0%
same,"% damage, Echinochloa",Echinochloa,100%
same,"% damage, Bromus",Bromus,95%
same,"% damage, Avena fatua",Avena fatua,95%
same,"% damage, Alopecurus",Alopecurus [7],90%
Cc1sc(-c2ccc(Cl)cc2)nc1C1=C(O)C2(CCCCC2)CC1=O [Example I-1-a-2],% efficacy,[8],91%
same,% efficacy,Alternaria solani,93%
same,"% damage, Sinapis",Sinapis,80%
same,"% damage, Wheat",Wheat,0%
same,"% damage, Matricana",Matricaria,95%
same,"% damage, Setaria",Setaria [3]; 60 g a.i./ha,100%
same,"% damage, Soya bean",Soya bean; 60 g a.i./ha,0%
same,% efficacy,Sphaerotheca fuliginea,100%
same,% efficacy,Botrytis cinerea,92%
same,"% damage, Setaria",Setaria [4],100%
same,ED50 value,Ustilago avenae,<0.1 ppm
same,ED50 value,Septoria tritici,<0.1 ppm
same,"% damage, Lolium",Lolium; 60 g a.i./ha,100%
same,ED50 value,Pyricularia oryzae,<0.1 ppm
same,Kill rate in % after 7 d,[5],100%
same,"% damage, Digitaria",Digitaria; 60 g a.i./ha,100%
same,"% damage, Avena fatua",Avena fatua,100%
same,"% damage, Alopecurus",Alopecurus [7],90%
